# Data as given in patent US20090197859A1 (Pfizer Inc., priority 2008, published 2009).
# Target: T1, cloned human 5-HT6 receptor (Homo sapiens, UniProt P50406)
# T1 construct: host or cells: HeLa cells, G-418 selection, membrane preparation
# Test: 5-HT6 Receptor Binding Assay ([3H]-LSD radioligand, SPA)
# Conditions: read-out: 5HT6 % inh @ 1 uM
# Description: 5-HT6 Receptor Binding Assay
# Hela cells containing the cloned human 5-HT6 receptor were acquired from Dr. David R. Sibley's laboratory in National Institute of Health (see Sibley, D. R., J. Neurochemistry, 66, 47-56, 1996). Cells were grown in high glucose Dulbecco's modified Eagle's medium, supplemented with L-glutamine, 0.5% sodium pyruvate, 0.3% penicillin-streptomycin, 0.025% G-418 and 5% Gibco fetal bovine serum and then were harvested, when confluent, in cold phosphate buffered saline.
# Harvested intact cells were washed once in cold phosphate-buffered saline. The cells were pelleted and resuspended in 100 ml of cold 50 mM Tris, 5 mM EDTA and 5 mM EGTA, pH 7.4. Homogenization was with a Vir Tishear generator, 4 cycles for 30 seconds each at setting 50. The homogenized cells were centrifuged at […] for 10 minutes and the supernatant was removed. The pellet was resuspended in 100 ml of the above buffer and rehomogenized for 2 cycles. The rehomogenized cells were then centrifuged at […] for 10 minutes and the supernatant was removed. The combined supernatant (200 ml) was centrifuged at 23,000 RPM (80,000×g) for 1 hour in a Beckman Rotor (42.1 Ti). The membrane pellet was resuspended in […] of assay buffer containing HEPES 20 mM, MgCl2 10 mM, NaCl 150 mM, EDTA 1 mM, pH 7.4 and stored frozen in aliqouts at −70° C.
# The radioligand binding assay used [^3H]-lysergic acid diethylamide (LSD). The assay was carried out in Wallac 96-well sample plates by the addition of 11 μl of the test sample at the appropriate dilution (the assay employed 11 serial concentrations of samples run in duplicate), 11 μl of radioligand, and 178 μl of a washed mixture of WGA-coated SPA beads and membranes in binding buffer. The plates were shaken for about 5 minutes and then incubated at room temperature for 1 hour. The plates were then loaded into counting cassettes and counted in a Wallac MicroBeta Trilux scintillation counter.
# Binding Constant Determination may be obtained by performing serial dilutions, e.g., eleven dilutions, of test compounds into assay plates using the PE/Cetus Pro/Pette pipetter. These dilutions are followed by radioligand and the bead-membrane mixture prepared as described above. After obtaining the specifically bound cpm, the data are fit to a one-site binding model using GraphPad Prism ver. 2.0. Estimated IC50 values are converted to Ki values using the Cheng-Prusoff equation (Cheng, Y. C. et al., Biochem. Pharmacol., 22, 3099-108, 1973).
# T1 sequence (P50406 whole entry): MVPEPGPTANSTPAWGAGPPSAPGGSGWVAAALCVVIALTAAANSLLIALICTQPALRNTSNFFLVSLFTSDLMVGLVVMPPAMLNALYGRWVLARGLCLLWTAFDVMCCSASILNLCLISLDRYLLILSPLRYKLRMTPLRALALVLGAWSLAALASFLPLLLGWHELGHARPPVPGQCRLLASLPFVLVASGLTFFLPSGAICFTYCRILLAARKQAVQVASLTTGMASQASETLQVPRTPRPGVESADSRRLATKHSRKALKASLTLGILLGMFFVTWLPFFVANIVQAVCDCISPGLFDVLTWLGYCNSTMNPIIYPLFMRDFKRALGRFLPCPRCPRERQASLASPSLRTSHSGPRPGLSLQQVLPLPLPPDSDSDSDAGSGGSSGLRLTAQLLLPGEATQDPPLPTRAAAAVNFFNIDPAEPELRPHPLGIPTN
row,SMILES,inhibition at 1 µM [%]
1,"CN1CCC(c2cccc(C(=O)N3CCC(Oc4cccc(F)c4)CC3)n2)C1 (stereo not drawn) [Example 16, [4-(3-Fluoro-phenoxy)-piperidin-1-yl]-[6-(1-methyl-pyrrolidin-3-yl)-pyridin-2-yl]-methanone]",93.2
2,"CN1CC=C(c2cccc(C(=O)N3CCC(Oc4ccccc4F)CC3)n2)CC1 [Example 18, [4-(2-Fluoro-phenoxy)-piperidin-1-yl]-[1′-methyl-1′,2′,3′,6′-tetrahydro-[2,4′]bipyridinyl-6-yl)-methanone]",95.3
3,"CN1CCN(c2cccc(C(=O)N3CC=C(c4ccccc4F)CC3)n2)CC1 [Example 21, [4-(2-Fluoro-phenyl)-3,6-dihydro-2H-pyridin-1-yl]-[6-(4-methyl-piperazin-1-yl)-pyridin-2-yl]-methanone]",97.8
4,"O=C(c1cccc(N2CCNCC2)n1)N1CCC(c2ccccc2F)CC1 [Example 22, [4-(2-Fluoro-phenyl)-piperidin-1-yl]-(6-piperazin-1-yl-pyridin-2-yl)-methanone]",96.8
5,"Cc1cccc(F)c1C1CCN(C(=O)c2cccc(N3CCN(C)CC3)n2)CC1 [Example 23, [4-(2-Fluoro-6-methyl-phenyl)-piperidin-1-yl]-[6-(4-methyl-piperazin-1-yl)-pyridin-2-yl]-methanone]",98.3
6,"Cc1ccccc1C1CCCCN1C(=O)c1cccc(N2CCNCC2)n1 (stereo not drawn) [Example 26, (6-Piperazin-1-yl-pyridin-2-yl)-(2-o-tolyl-piperidin-1-yl)-methanone]",78.6
7,"O=C(c1cccc(N2CCCNCC2)n1)N1CC[C@H](Oc2ccccc2F)C1 [Example 30, (6-[1,4]Diazepan-1-yl-pyridin-2-yl)-[(S)-3-(2-fluoro-phenoxy)-pyrrolidin-1-yl]-methanone]",98.8
8,"CN1CCCN(c2cccc(C(=O)N3CC[C@@H](Oc4ccccc4F)C3)n2)CC1 [Example 46, [(R)-3-(2-Fluoro-phenoxy)-pyrrolidin-1-yl]-[6-(4-methyl-[1,4]diazepan-1-yl)-pyridin-2-yl]-methanone]",85
9,"O=C(c1cccc(N2CCCNCC2)n1)N1CCC[C@@H](Oc2ccccc2F)C1 [Example 47, (6-[1,4]Diazepan-1-yl-pyridin-2-yl)-[(R)-3-(2-fluoro-phenoxy)-piperidin-1-yl]-methanone]",90.6
10,"O=S(=O)(c1cccc(N2CCNCC2)n1)N1CCC(c2ccccc2F)CC1 [Example 51, 1-{6-[4-(2-Fluoro-phenyl)-piperidine-1-sulfonyl]-pyridin-2-yl}-piperazine]",97
11,"Cc1ccccc1O[C@@H]1CCN(C(=O)c2cccc(N3CCCN(C)CC3)n2)C1 [Example 53, [6-(4-Methyl-[1,4]diazepan-1-yl)-pyridin-2-yl]-((R)-3-o-tolyloxy-pyrrolidin-1-yl)-methanone]",95.9
12,"Cc1ccc([C@@H](C)N(C)C(=O)c2cccc(N3CCN(C)CC3)n2)cc1 [Example 60, 6-(4-Methyl-piperazin-1-yl)-pyridine-2-carboxylic acid methyl-((R)-1-p-tolyl-ethyl)-amide]",73.8
13,"Cc1ccccc1C1CCN(S(=O)(=O)c2cccc(N3CCN(C)CC3)n2)CC1 [Example 78, 1-Methyl-4-[6-(4-o-tolyl-piperidine-1-sulfonyl)-pyridin-2-yl]-piperazine]",98.5
14,Cc1cccc([C@H]2CCCCN2C(=O)c2cccc(N3CCCN(C)CC3)n2)c1 [Example 81],93.6
15,"Cc1ccccc1C1CN(C(=O)c2cccc(N3CCN(C)CC3)n2)C1 [Example 82, [6-(4-Methyl-piperazin-1-yl)-pyridin-2-yl]-(3-o-tolyl-azetidin-1-yl)-methanone]",91.3
16,"CN1CCN(c2cccc(C(=O)N3CC(c4ccccc4F)C3)n2)CC1 [Example 83, [3-(2-Fluoro-phenyl)-azetidin-1-yl]-[6-(4-methyl-piperazin-1-yl)-pyridin-2-yl]-methanone]",84.4
17,"CN1CCN(c2cccc(C(=O)N3CC(c4cccc(F)c4)C3)n2)CC1 [Example 84, [3-(3-Fluoro-phenyl)-azetidin-1-yl]-[6-(4-methyl-piperazin-1-yl)-pyridin-2-yl]-methanone]",78

row,SMILES,inhibition at 1 µM [%]
1,"CN1CCCN(c2cccc(C(=O)N3CCCC[C@@H]3c3ccccc3F)n2)CC1 [Example 89, [(R)-2-(2-Fluoro-phenyl)-piperidin-1-yl]-[6-(4-methyl-[1,4]diazepan-1-yl)-pyridin-2-yl]-methanone]",92.3
2,"Cc1cccc(C2CN(C(=O)c3cccc(N4CCN(C)CC4)n3)C2)c1 [Example 91, [6-(4-Methyl-piperazin-1-yl)-pyridin-2-yl]-(3-m-tolyl-azetidin-1-yl)-methanone]",84.8
3,"CN1CCN(c2cccc(C(=O)N3CCCC(c4cccc(F)c4)C3)n2)CC1 (stereo not drawn) [Example 94, [3-(3-Fluoro-phenyl)-piperidin-1-yl]-[6-(4-methyl-piperazin-1-yl)-pyridin-2-yl]-methanone]",90.8
4,"Cc1ccccc1OC1CCN(C(=O)c2cccc(C3CCN(C)CC3)n2)CC1 [Example 95, (1′-Methyl-1′,2′,3′,4′,5′,6′-hexahydro-[2,4′]bipyridinyl-6-yl)-(4-o-tolyloxy-piperidin-1-yl)-methanone]",84
5,"Cc1ccccc1OC1CCN(C(=O)c2cccc(C3=CCN(C)CC3)n2)CC1 [Example 98, (1′-Methyl-1′,2′,3′,6′-tetrahydro-[2,4′]bipyridinyl-6-yl)-(4-o-tolyloxy-piperidin-1-yl)-methanone]",99.1
6,"CN1CCC(c2cccc(C(=O)N3CCC(Oc4ccccc4F)CC3)n2)CC1 [Example 99, [4-(2-Fluoro-phenoxy)-piperidin-1-yl]-(1′-methyl-1′,2′,3′,4′,5′,6′-hexahydro-[2,4′]bipyridinyl-6-yl)-methanone]",78.4
7,"CN1CC=C(c2cccc(C(=O)N3CCC(Oc4ccccc4Cl)CC3)n2)CC1 [Example 100, [4-(2-Chloro-phenoxy)-piperidin-1-yl]-(1′-methyl-1′,2′,3′,6′-tetrahydro-[2,4′]bipyridinyl-6-yl)-methanone]",102
8,"CN1CC=C(c2cccc(C(=O)N3CCC(Oc4ccccc4C(F)(F)F)CC3)n2)CC1 [Example 101, (1′-Methyl-1′,2′,3′,6′-tetrahydro-[2,4′]bipyridinyl-6-yl)-[4-(2-trifluoromethyl-phenoxy)-piperidin-1-yl]-methanone]",96.9
9,"CN1CCN(c2cccc(C(=O)N3CCC(F)(c4ccccc4F)CC3)n2)CC1 [Example 107, [4-Fluoro-4-(2-fluoro-phenyl)-piperidin-1-yl]-[6-(4-methyl-piperazin-1-yl)-pyridin-2-yl]-methanone]",97.2
10,"CN1CCC(c2cccc(C(=O)N3CCC(c4ccc(F)cc4F)CC3)n2)C1 (stereo not drawn) [Example 108, [4-(2,4-Difluoro-phenyl)-piperidin-1-yl]-[6-(1-methyl-pyrrolidin-3-yl)-pyridin-2-yl]-methanone]",95.4
11,"CN1CCN(c2cccc(C(=O)N3CCC(Oc4ccc(F)cc4F)CC3)n2)CC1 [Example 109, [4-(2,4-Difluoro-phenoxy)-piperidin-1-yl]-[6-(4-methyl-piperazin-1-yl)-pyridin-2-yl]-methanone]",97.8
12,"Cc1cccc(F)c1C1CCN(C(=O)c2cccc(C3=CCNC3)n2)CC1 [Example 110, [6-(2,5-Dihydro-1H-pyrrol-3-yl)-pyridin-2-yl]-[4-(2-fluoro-6-methyl-phenyl)-piperidin-1-yl]-methanone]",98.2
13,"CN1CCC(c2cccc(C(=O)N3CCC(Oc4ccccc4F)CC3)n2)C1 (stereo not drawn) [Example 113, [4-(2-Fluoro-phenoxy)-piperidin-1-yl]-[6-(1-methyl-pyrrolidin-3-yl)-pyridin-2-yl]-methanone]",97.8
14,"Cc1ccccc1C1CCN(C(=O)c2cccc(N3CCN(C4CC4)CC3)n2)CC1 [Example 114, [6-(4-Cyclopropyl-piperazin-1-yl)-pyridin-2-yl]-(4-o-tolyl-piperidin-1-yl)-methanone]",64.5
15,"CN1CCN(c2cccc(C(=O)N3CCC(Cc4ccccc4F)CC3)n2)CC1 [Example 115, [4-(2-Fluoro-benzyl)-piperidin-1-yl]-[6-(4-methyl-piperazin-1-yl)-pyridin-2-yl]-methanone]",101
16,"CN1CCN(c2cccc(C(=O)N3CCCC(c4ccccc4F)CC3)n2)CC1 (stereo not drawn) [Example 116, [4-(2-Fluoro-phenyl)-azepan-1-yl]-[6-(4-methyl-piperazin-1-yl)-pyridin-2-yl]-methanone]",98.5
